Results on eight compounds are retold here after PubChem BioAssay (NCI).

Some test systems named below: OVCAR-3 ovarian; NCI-H522 lung; MALME-3M melanoma; HCC-2998 colon; 786-0 renal; RXF 393 renal; OVCAR-5 ovarian; ACHN renal; CCRF-CEM leukemia; SF-268 CNS.
Holding throughout (assay): DTP human tumour cell line panel, 48 h

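Protocol summary: plate cells (96-well), add compound at 5 concentrations, incubate 48 h, interpolate endpoints linearly. At the GI50, growth is halved. TGI: concentration producing complete growth inhibition.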

Usually GI50 stands for the concentration giving 50% growth inhibition. For orientation: TGI means the concentration giving total growth inhibition. A high value points to less potent growth arrest. As for `NS(=O)(=O)c1ccc(-n2nc3c(c2-c2ccc(Cl)cc2)Cc2ccccc2-3)cc1`, the GI50 in the experiment on OVCAR-3 ovarian is 17 µM; in the experiment on NCI-H522 lung, 5.63 µM; with MALME-3M melanoma, 2.96 µM; in the experiment on HCC-2998 colon, 18.3 µM; in the experiment on 786-0 renal, 14.6 µM; in the experiment with RXF 393 renal, 17 µM. The GI50 was 24.2 µM in the experiment on OVCAR-5 ovarian, 19.8 µM in the experiment with ACHN renal, 2.96 µM with CCRF-CEM leukemia and 22.4 µM in the experiment with SF-268 CNS. Besides, the TGI came out at 31.6 µM in the experiment with OVCAR-3 ovarian; 19.3 µM with NCI-H522 lung; 14.7 µM with MALME-3M melanoma; 35.7 µM with HCC-2998 colon; 30.7 µM in the experiment on 786-0 renal; 34.4 µM with RXF 393 renal. The TGI in the experiment with OVCAR-5 ovarian was 57.4 µM; in the experiment with ACHN renal, 34.6 µM; in the experiment with CCRF-CEM leukemia, 9.08 µM; with SF-268 CNS, 50.4 µM.

For `COc1ccc(-c2ccncc2)cc1C(N)=O`, the GI50 in the experiment with OVCAR-3 ovarian, with NCI-H522 lung, with MALME-3M melanoma, in the experiment with HCC-2998 colon, in the experiment with 786-0 renal and with RXF 393 renal was over 25 µM each time. For the same compound, the GI50 in the experiment on OVCAR-5 ovarian, in the experiment on ACHN renal, with CCRF-CEM leukemia and in the experiment with SF-268 CNS was over 25 µM throughout. Besides, the TGI in the experiment on OVCAR-3 ovarian, with NCI-H522 lung, in the experiment on MALME-3M melanoma, in the experiment on HCC-2998 colon, in the experiment with 786-0 renal and in the experiment on RXF 393 renal was over 25 µM each time. In addition, the TGI in the experiment with OVCAR-5 ovarian, in the experiment on ACHN renal, in the experiment with CCRF-CEM leukemia and with SF-268 CNS was over 25 µM throughout.

With `O=c1c2cc(F)ccc2sc2c(N3CCNCC3)nc3ccc(F)cc3c12`, the GI50 in the experiment with OVCAR-3 ovarian was 1.73 µM; with NCI-H522 lung, 1.7 µM; in the experiment on MALME-3M melanoma, 1.59 µM; with HCC-2998 colon, 1.74 µM; in the experiment on 786-0 renal it was 1.49 µM; with RXF 393 renal, 1.33 µM. Further, the GI50 in the experiment with OVCAR-5 ovarian was 1.66 µM; in the experiment on ACHN renal it was 1.48 µM; with CCRF-CEM leukemia, 2.06 µM; in the experiment on SF-268 CNS, 1.57 µM. Besides, the TGI in the experiment on OVCAR-3 ovarian amounted to 3.17 µM; in the experiment with NCI-H522 lung, 3.39 µM; in the experiment with MALME-3M melanoma, 3.06 µM; in the experiment with HCC-2998 colon it was 3.4 µM; in the experiment with 786-0 renal, 2.98 µM; in the experiment on RXF 393 renal, 2.71 µM. Moreover, the TGI in the experiment on OVCAR-5 ovarian came out at 3.07 µM; in the experiment on ACHN renal it was 2.8 µM; in the experiment on CCRF-CEM leukemia, 5.24 µM; in the experiment with SF-268 CNS, 3.16 µM.

As to `Cc1nc(-c2ccccc2)n2nc(NCCCN3CCOCC3)ncc12`, the GI50 with OVCAR-3 ovarian is over 25 µM; in the experiment on NCI-H522 lung it was over 25 µM; with MALME-3M melanoma, over 17.9 µM; with HCC-2998 colon, over 25 µM; in the experiment with 786-0 renal, over 25 µM; in the experiment on RXF 393 renal it was 6.75 µM. For the same compound, the GI50 was over 25 µM in the experiment with OVCAR-5 ovarian, 10.4 µM in the experiment with ACHN renal, over 25 µM with CCRF-CEM leukemia and over 25 µM in the experiment on SF-268 CNS. The TGI in the experiment with OVCAR-3 ovarian, in the experiment with NCI-H522 lung, with MALME-3M melanoma, in the experiment on HCC-2998 colon, in the experiment with 786-0 renal and in the experiment on RXF 393 renal was over 25 µM each time. In addition, the TGI in the experiment on OVCAR-5 ovarian, in the experiment with ACHN renal, in the experiment on CCRF-CEM leukemia and with SF-268 CNS was over 25 µM throughout.

Regarding `C#Cc1cccc(N2C(=O)c3c(c(-c4ccccc4)c(-c4ccc(Cc5ccc(-c6c(-c7ccccc7)c7c(c(-c8ccccc8)c6-c6ccccc6)C(=O)N(c6cccc(C#C)c6)C7=O)cc5)cc4)c(-c4ccccc4)c3-c3ccccc3)C2=O)c1`, the TGI in the experiment on OVCAR-3 ovarian, in the experiment with NCI-H522 lung, in the experiment with MALME-3M melanoma, in the experiment with HCC-2998 colon, in the experiment on 786-0 renal and in the experiment on RXF 393 renal was over 100 µM in each case. In addition, the TGI with OVCAR-5 ovarian, with ACHN renal, with CCRF-CEM leukemia and in the experiment on SF-268 CNS was over 100 µM each time.

Take `CN(CCCCCl)P(=O)(OCCS(=O)(=O)CC(NC(=O)CCC(N)C(=O)O)C(=O)NC(C(=O)O)c1ccccc1)OCC1OC(n2ccc(N)nc2=O)C(F)(F)C1O` (stereo not drawn): the GI50 is 14.7 µM in the experiment with OVCAR-3 ovarian; 3.79 µM in the experiment on NCI-H522 lung; 3.06 µM in the experiment with MALME-3M melanoma; 24.5 µM in the experiment on HCC-2998 colon; 0.02 µM with 786-0 renal; 0.744 µM in the experiment on RXF 393 renal. Further, the GI50 with OVCAR-5 ovarian is 0.872 µM; in the experiment on CCRF-CEM leukemia, 0.0897 µM; in the experiment on SF-268 CNS, 0.337 µM. The TGI in the experiment with OVCAR-3 ovarian is over 100 µM; in the experiment on NCI-H522 lung, over 100 µM; in the experiment with MALME-3M melanoma it was over 100 µM; in the experiment with HCC-2998 colon it was over 100 µM; in the experiment with RXF 393 renal, over 45.1 µM; with OVCAR-5 ovarian, over 100 µM. In addition, the TGI in the experiment with ACHN renal was over 33.8 µM; with CCRF-CEM leukemia, over 100 µM; in the experiment with SF-268 CNS, over 100 µM.

Take `Cc1ncc(C(=O)Nc2ccc(CN3CCN(C)CC3)c(C(F)(F)F)c2)cc1C#Cc1cnc2cccnn12`: the GI50 with OVCAR-3 ovarian was 0.643 µM; in the experiment with NCI-H522 lung, 0.58 µM; in the experiment on MALME-3M melanoma, 0.0895 µM; in the experiment with HCC-2998 colon, 0.446 µM; in the experiment with 786-0 renal it was 1.05 µM; in the experiment on RXF 393 renal it was 0.438 µM. The GI50 was 0.335 µM with OVCAR-5 ovarian, 0.287 µM in the experiment on ACHN renal, 0.199 µM in the experiment with CCRF-CEM leukemia and 0.622 µM in the experiment with SF-268 CNS. The TGI was determined as 2.52 µM with OVCAR-3 ovarian; 2.4 µM in the experiment with NCI-H522 lung; 0.355 µM in the experiment on MALME-3M melanoma; 4.28 µM in the experiment with HCC-2998 colon; 3.16 µM in the experiment on 786-0 renal; 1.14 µM in the experiment on RXF 393 renal. The TGI with OVCAR-5 ovarian amounted to 5.84 µM; in the experiment on ACHN renal, 1.53 µM; in the experiment with CCRF-CEM leukemia, 20.7 µM; with SF-268 CNS, 2.59 µM.

On to `COc1cc(OC)c(C(=O)/C=C/c2cc3c(cc2OCc2ccccc2)OC(C)(C)CC3)cc1CC=C(C)C`, for which the GI50 was 4.89 µM with OVCAR-3 ovarian; 7.85 µM in the experiment on NCI-H522 lung; 4.89 µM in the experiment on MALME-3M melanoma; 8.91 µM in the experiment with HCC-2998 colon; 9.33 µM with 786-0 renal; 5.91 µM in the experiment with RXF 393 renal. In addition, the GI50 in the experiment with OVCAR-5 ovarian is 13.4 µM; in the experiment on ACHN renal it was 5.42 µM; in the experiment with CCRF-CEM leukemia it was 4.02 µM; with SF-268 CNS, 4.82 µM. The TGI is 13.1 µM with OVCAR-3 ovarian; over 25 µM in the experiment with NCI-H522 lung; 12.6 µM in the experiment on MALME-3M melanoma; over 25 µM in the experiment with HCC-2998 colon; over 25 µM in the experiment with 786-0 renal; 17.1 µM with RXF 393 renal. Further, the TGI in the experiment with OVCAR-5 ovarian was over 25 µM; in the experiment with ACHN renal, 14.5 µM; in the experiment on CCRF-CEM leukemia, 19.3 µM; with SF-268 CNS, 15.2 µM.
